Patent publication US11059853B2, “Crystalline or amorphous form of steroid derivative FXR agonist, preparation method therefor and use thereof” (Chia Tai Tianqing Pharmaceutical Group Co., Ltd., priority 2017, dated 2021)

Key:
[1] = Pharmacokinetics in mice administrated with single compound; assay type: in vivo, mice (C57BL/6J); details: mouse, plasma, male C57BL/6J mice; for bioavailability: oral 10 mg/kg vs intravenous 2 mg/kg; for AUC / Cmax / Tmax: oral (intragastrical) 10 mg/kg
Protocol: 12 male mice (C57BL/6J) were randomly divided into two groups, i.e., 6 mice per group. […] Plasma (using K2-EDTA as anticoagulant) samples were taken at 0.083, 0.25, 0.5, 1, 2, 4, 6, 8 and 24 hours in the intravenous administration group after administration; and plasma samples were taken at 0.25, 0.5, 1, 2, 4, 6, 8 and 24 hours in the oral administration group after administration. For 6 animals in each group, blood samples were collected for 3 animals at one time point. The first batch of 3 animals was alternately sampled with the second batch of 3 animals. Plasma sample analysis was performed by using LC-MS/MS. The resultant plasma concentrations were plotted with respect to time, and PK parameters were calculated by using Phoenix WinNonlin 6.3.

[2] = target: T1, Glutathione-S-transferase-labeled FXR human protein (Homo sapiens, UniProt Q96RI1); assay: FXR biochemical experiment (AlphaScreen, coactivator recruitment)
T1 sequence (Q96RI1 1-486): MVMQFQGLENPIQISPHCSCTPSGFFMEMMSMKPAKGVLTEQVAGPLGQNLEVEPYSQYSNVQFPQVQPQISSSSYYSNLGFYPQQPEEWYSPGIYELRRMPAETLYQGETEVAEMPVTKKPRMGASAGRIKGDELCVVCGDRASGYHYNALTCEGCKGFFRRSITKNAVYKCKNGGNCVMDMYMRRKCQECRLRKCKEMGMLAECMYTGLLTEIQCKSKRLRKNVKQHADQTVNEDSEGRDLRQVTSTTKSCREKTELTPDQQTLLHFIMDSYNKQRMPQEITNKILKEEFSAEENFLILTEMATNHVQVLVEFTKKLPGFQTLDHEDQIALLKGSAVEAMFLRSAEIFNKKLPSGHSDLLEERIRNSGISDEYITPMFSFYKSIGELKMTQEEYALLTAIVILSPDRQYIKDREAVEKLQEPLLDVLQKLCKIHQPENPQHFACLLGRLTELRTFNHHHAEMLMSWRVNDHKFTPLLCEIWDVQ
Protocol: The activation effect of the compound on FXR binding reaction was detected by AlphaScreen. […] Protein: Glutathione-S-transferase-labeled FXR human protein (Invitrogen) 2. Co-activator: Biotin-labeled steroid receptor coactivator (Anaspec) 3. […] Compound Dilution: The compound to be tested was prepared as a 40 μM DMSO solution, and then diluted 3-fold to 10 concentration points. The reference compound was prepared as a 400 μM DMSO solution, and then diluted 1.5-fold to 10 concentration points. The diluted DMSO solution was added to the wells of a 384-well plate in a volume of 150 nL per well. 2. […] 4. […] The operation during the experimental process was protected from light. The incubation was performed for 1 hour at room temperature. 5. […] The operation during the experimental process was protected from light. The incubation was performed for 1 hour at room temperature. 6. EC50 test: Envision was used with excitation at 680 nm to read the absorbance signals at 520-620 nm. 7. Analytical data: The data were analyzed via using Prism 5.0, and the EC50 values of the activation effects of the compound were calculated.

[3] = target: T2, FXR (FXR HEK 293T DA cells) (Homo sapiens, UniProt Q96RI1); assay: FXR cell experiment (β-lactamase reporter gene); assay type: cell-based
T2 sequence (Q96RI1 262-486 limits assumed): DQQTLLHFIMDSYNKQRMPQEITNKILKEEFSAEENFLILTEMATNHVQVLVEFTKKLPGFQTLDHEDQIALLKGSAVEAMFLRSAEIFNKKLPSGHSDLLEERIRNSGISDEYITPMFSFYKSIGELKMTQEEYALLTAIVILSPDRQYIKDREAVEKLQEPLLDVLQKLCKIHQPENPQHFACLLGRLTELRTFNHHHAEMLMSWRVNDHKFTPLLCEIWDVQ
Protocol: 2. Cell culture medium: DMEM medium supplemented with 10% serum and Penicillin/Streptomycin (1×)
3. Detection reagent: GeneBLAzer® Reporter Gene Detection Kit (Invitrogen)
1. Compound Dilution: The compound to be tested was prepared as a 100 μM DMSO solution, and then the compound was diluted 3-fold to 10 concentration points. The reference compound was prepared as a 100 μM DMSO solution, and then diluted 1.3-fold to 10 concentration points. The diluted DMSO solution was added to the wells of a 384-well plate in a volume of 200 nL per well.
3. The 384-well plate was incubated at 37° C., 5% CO2 for 16 hours.
4. 6 μL of 1 mM LiveBLAzer™-FRET 13/G (CCF4-AM) substrate was mixed with 60 μL of B solution and 934 μL of C solution, and added to the wells of the 384-well plate in a volume of 8 μL per well.
5. The 384-well plate was incubated in dark for 2 hours at room temperature.
7. Analytical data: The data was analyzed via using Prism 5.0, and the EC50 values of the activation effects of the compound were calculated.

[4] = Test for hygroscopicity, Dynamic Vapor Sorption (DVS); assay type: physicochemical; details: 25±1° C., 80±2% RH
Protocol: Dynamic Vapor Sorption (DVS) analysis was performed on crystalline Form A and the solid amorphous form of the compound of formula I by the following process and conditions: the samples (10 to 15 mg) were placed in the sample pan; instrument model: SMS DVS Advantage Dynamic Vapor Sorption; temperature: 25° C.; balance: dm/dt=0.01%/min (Min: 10 min, Max: 180 min); drying: for 120 min at 0% RH; RH (%) gradient for testing: 10%; the RH (%) range for gradient testing: 0%-90%-0%. The hygroscopicity was evaluated using the following scale: […]

[5] = Solid-state stability test (XRPD detection); assay type: physicochemical; details: room temperature/75% RH, 40° C./75% RH, 60° C./75% RH (all open); for Solid-state stability: crystalline form by XRPD compared with Day 0: room temperature/92.5% RH, Day 5 and Day 10
Protocol: In the present application, the X-ray powder diffraction patterns are measured by the following method: instrument: Bruker D8 ADVANCE X-ray diffractometer; method: target: Cu: K-Alpha; wavelength: λ=1.54179 Å; tube voltage: 40 kV; divergence slit: 0.60 mm; detector slit: 10.50 mm; antiscattering slit: 7.10 mm; tube current: 40 mA; scan range: 4° to 40°; scanning speed: 0.12 sec/step, 0.02°/step; sample tray rotation speed: 15 rpm.
The solid-state stability of crystalline Form A was examined under the following conditions: 1) 40° C. (open), 2) 60° C. (open), 3) room temperature/92.5% RH (open), 4) room temperature/75% RH (open), 5) 40° C./75% RH (open), and 6) 60° C./75% RH (open), wherein the room temperature was selected from 20° C. to 30° C.
(§1) Several samples of crystalline Form A in a suitable amount were taken, and placed on the bottom of the glass specimen bottles and spread into a thin layer. The bottles with the samples to be placed under the abovementioned conditions were capped with aluminum-foil paper which has been punched with several small holes, which ensures that the samples could be in full contact with the ambient air.
The solid-state stability of crystalline Form B was examined under the following conditions: 1) room temperature/92.5% RH (open), 2) room temperature/75% RH (open), 3) 40° C./75% RH (open), and 4) 60° C./75% RH (open), which the room temperature was selected from 20° C. to 30° C.
as §1, with “B” for “A”
The solid-state stability for the solid amorphous form of the compound of formula I was examined under the following conditions: 1) room temperature/75% RH (open), 2) 40° C./75% RH (open), 3) 60° C./75% RH (open), wherein the room temperature was selected from 20° C. to 30° C. […]

Row | SMILES | bioavailability [1] | AUC [1] | Cmax [1] | Tmax [1] | hygroscopic weight gain [4] | other results
1 | CC[C@H]1[C@@H](O)[C@@H]2[C@H](CC[C@]3(C)[C@@H]([C@H](C)CCC(=O)O)CC[C@@H]23)[C@@]2(C)CC[C@@H](O)C[C@@H]12 [Obeticholic acid, reference compound] | 13% | 0.993 µM·h | 1010 nM | 18 min | – | –
2 | CC[C@H]1[C@@H](O)[C@@H]2[C@H](CC[C@]3(C)[C@@H]([C@H](C)CCOc4ncc(C(=O)O)cc4Cl)CC[C@@H]23)[C@@]2(C)CC[C@@H](O)C[C@@H]12 [The compound of formula I] | 20% | 1.11 µM·h | 1780 nM | 30 min | – | EC50 ([2]; AlphaScreen, GST-FXR human protein with biotin-labeled steroid receptor coactivator, read-out: FXR enzyme activity EC50): 2.5 nM; FXR enzyme activity Efficacy ([2]; highest signal relative to the reference compound): 248%; EC50 ([3]; FXR HEK 293T DA cells, β-lactamase reporter gene, 16 hours, read-out: FXR cell viability EC50): 3 nM; FXR cell viability Efficacy ([3]; highest signal relative to reference compound CDCA): 150%
3 | CC[C@H]1[C@@H](O)[C@@H]2[C@H](CC[C@]3(C)[C@@H]([C@H](C)CCOc4ncc(C(=O)O)cc4Cl)CC[C@@H]23)[C@@]2(C)CC[C@@H](O)C[C@@H]12 [crystalline Form A] | – | – | – | – | 0.835% | Solid-state stability: crystalline form by XRPD compared with Day 0 ([5]; 40° C., 60° C.): remained unchanged
4 | CC[C@H]1[C@@H](O)[C@@H]2[C@H](CC[C@]3(C)[C@@H]([C@H](C)CCOc4ncc(C(=O)O)cc4Cl)CC[C@@H]23)[C@@]2(C)CC[C@@H](O)C[C@@H]12 [crystalline Form B] | – | – | – | – | – | Solid-state stability: crystalline form by XRPD compared with Day 0 [5]: remained unchanged
5 | CC[C@H]1[C@@H](O)[C@@H]2[C@H](CC[C@]3(C)[C@@H]([C@H](C)CCOc4ncc(C(=O)O)cc4Cl)CC[C@@H]23)[C@@]2(C)CC[C@@H](O)C[C@@H]12 [solid amorphous form of the compound of formula I] | – | – | – | – | 1.775% | Solid-state stability: XRPD compared with Day 0 ([5]; Day 10 and one month): remained unchanged
